Reference: patent US10597388B2, “Pyridazinone herbicides” (FMC CORPORATION, priority 2014, dated 2020)

What was measured:
Experiment in all cases: Test D controlled growth environment herbicide test, pre- and postemergence
Assay type in all cases: in vivo
[1] = system: bromegrass, downy (downy bromegrass, Bromus tectorum); conditions: for Bromegrass, Downy plant response rating / Plant response rating (scale of 0 to 100), Bromegrass, Downy: 31 g ai/ha
Summary of the method: (§1)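 Pre-emergence: seeds sown in silt loam soil were sprayed with compound in a non-phytotoxic solvent mix containing surfactant. Post-emergence: plants at 2 to 18 cm (1- to 4-leaf stage) in peat moss/vermiculite medium got the same formulation. Visual 0–100 rating versus controls after 14 to 21 d.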

[2] = system: ryegrass, Italian (Italian ryegrass, Lolium multiflorum)
Summary of the method: as §1

[3] = system: bluegrass (annual bluegrass, Poa annua)
Summary of the method: as §1

[4] = system: speedwell (bird's-eye speedwell, Veronica persica)
Summary of the method: as §1

[5] = Postemergence, scale 0 to 100 (0 no effect, 100 complete control)
[6] = Postemergence, 125 g ai/ha, visual rating on scale 0 (no effect) to 100 (complete control), 14 to 21 d
[7] = Postemergence, 250 g ai/ha, scale 0 to 100 (0 no effect, 100 complete control)
[8] = Preemergence, 62 g ai/ha, scale 0 to 100 (0 no effect, 100 complete control)
[9] = Preemergence, 125 g ai/ha, scale 0 to 100 (0 no effect, 100 complete control)
[10] = Preemergence, 250 g ai/ha, scale 0 to 100, 0 no effect, 100 complete control
[11] = postemergence, 62 g ai/ha, scale 0 to 100, 0 no effect, 100 complete control
[12] = Postemergence, 31 g ai/ha, scale 0 to 100 (0 no effect, 100 complete control)

| Structure (SMILES) | Bromegrass, Downy plant response rating [1, 5] | Plant response rating, Bromegrass, Downy [1, 6] | Plant response rating, Bromegrass, Downy [1, 7] | Plant response rating (scale of 0 to 100), Bromegrass, Downy ([1]; Preemergence) | Plant response rating, Bromegrass, Downy [1, 8] | Plant response rating, Bromegrass, Downy [1, 9] | Plant response rating, Bromegrass, Downy [1, 10] | Plant response rating, Bromegrass, Downy [1, 11] | Ryegrass, Italian plant response rating [2, 12] | Plant response rating, Ryegrass, Italian [2, 6] | Plant response rating, Ryegrass, Italian [2, 7] | Plant response rating (scale of 0 to 100), Ryegrass, Italian ([2]; Preemergence, 31 g ai/ha) | Plant response rating, Ryegrass, Italian [2, 9] | Plant response rating, Ryegrass, Italian [2, 10] | Plant response rating, Ryegrass, Italian [2, 11] | Bluegrass plant response rating [3, 12] | Plant response rating, Bluegrass [3, 6] | Plant response rating, Bluegrass [3, 7] | Plant response rating (scale of 0 to 100), Bluegrass ([3]; Preemergence, 31 g ai/ha) | Plant response rating, Bluegrass [3, 8] | other results |
| --- | --- | --- | --- | --- | --- | --- | --- | --- | --- | --- | --- | --- | --- | --- | --- | --- | --- | --- | --- | --- | --- |
| CC(=O)Oc1c(C)nn(C)c(=O)c1-c1c(C)sc2ccc(Cl)cc12 [Compound 108] | 25 | 40 | 65 | 25 | 25 | 70 | 75 | 30 | 90 | 95 | 100 | 80 | 100 | 100 | 90 | 5 | 25 | 35 | 10 | 15 | Plant response rating (scale of 0 to 100), Ryegrass, Italian ([2]; Preemergence, 62 g ai/ha): 98; Plant response rating, Bluegrass [3, 9]: 35; Plant response rating, Bluegrass [3, 10]: 75; Plant response rating, Bluegrass [3, 11]: 10; Speedwell plant response rating [4, 12]: 60; Plant response rating, Speedwell [4, 6]: 70; Plant response rating, Speedwell [4, 7]: 80; Plant response rating, Speedwell [4, 11]: 65 |
| Cc1nn(C)c(=O)c(-c2cccc3ccccc23)c1O [Compound 11, 5-hydroxy-2,6-dimethyl-4-(1-naphthalenyl)-3(2H)-pyridazinone] | 15 | 25 | 50 | 5 | 5 | 20 | 55 | 15 | 80 | 85 | 90 | 85 | 100 | 100 | 85 | 5 | 5 | 15 | 10 | 15 | Plant response rating, Ryegrass, Italian [2, 8]: 90; Plant response rating, Bluegrass [3, 9]: 30; Bluegrass plant response rating [3, 10]: 55; Plant response rating, Bluegrass [3, 11]: 5; Speedwell plant response rating [4, 12]: 0; Plant response rating, Speedwell [4, 6]: 100; Plant response rating, Speedwell [4, 7]: 100; Plant response rating (scale of 0 to 100), Speedwell ([4]; Preemergence, 31 g ai/ha): 0; Plant response rating, Speedwell [4, 8]: 15; Plant response rating, Speedwell [4, 9]: 85; Plant response rating, Speedwell [4, 10]: 100; Plant response rating, Speedwell [4, 11]: 100 |
